Laboratory results: patent US8389555B2, “Medicaments” (Motac Neuroscience Limited, priority 2007, dated 2013)
Structures can show the parent of a compound that is named as a salt.

Structure (SMILES) | melting point [°C]
CCN(CCCCNC(=O)c1ccc2ncsc2c1)C1CCc2ncsc2C1 (stereo not drawn) (as salt: salt) [Compound 14, Benzothiazole-6-carboxylic acid {4-[ethyl-(4,5,6,7-tetrahydro-benzothiazol-6-yl)-amino]-butyl}-amide] | 106.5
CCCN(CCCCNC(=O)C1CCCCC1)C1CCc2ncsc2C1 (stereo not drawn) (as salt: salt) [Compound 20, Cyclohexanecarboxylic acid {4-[propyl-(4,5,6,7-tetrahydro-benzothiazol-6-yl)-amino]-butyl}-amide] | 130
CCCN(CCCCNC(=O)N1CCCCC1)C1CCc2ncsc2C1 (stereo not drawn) (as salt: salt) [Compound 21, Piperidine-1-carboxylic acid {4-[propyl-(4,5,6,7-tetrahydro-benzothiazol-6-yl)-amino]-butyl}-amide] | 71
CCCN(CCCCNC(=O)NC1CCCCC1)C1CCc2ncsc2C1 (stereo not drawn) (as salt: salt) [Compound 22, 1-Cyclohexyl-3-{4-[propyl-(4,5,6,7-tetrahydro-benzothiazol-6-yl)-amino]-butyl}-urea] | 149
CCCN(CCCCNC(=O)C1CCc2ccccc2C1)C1CCc2ncsc2C1 (stereo not drawn) (as salt: salt) [Compound 23, 1,2,3,4-Tetrahydro-naphthalene-2-carboxylic acid {4-[propyl-(4,5,6,7-tetrahydro-benzothiazol-6-yl)-amino]-butyl}-amide] | 138
CCCN(CCCCNC(=O)N1CCc2ccccc2C1)C1CCc2ncsc2C1 (stereo not drawn) (as salt: salt) [Compound 24, 3,4-Dihydro-1H-isoquinoline-2-carboxylic acid {4-[propyl-(4,5,6,7-tetrahydro-benzothiazol-6-yl)-amino]-butyl}-amide] | 125
CCCN(CCCCNC(=O)N1CCc2cc(OC)c(OC)cc2C1)C1CCc2ncsc2C1 (stereo not drawn) (as salt: salt) [Compound 25, 6,7-Dimethoxy-3,4-dihydro-1H-isoquinoline-2-carboxylic acid {4-[propyl-(4,5,6,7-tetrahydro-benzothiazol-6-yl)-amino]-butyl}-amide] | 106
CCCN(CCCCNC(=O)C1Cc2ccccc2C1)C1CCc2ncsc2C1 (stereo not drawn) (as salt: salt) [Compound 26, Indane-2-carboxylic acid-{4-[propyl-(4,5,6,7-tetrahydrobenzothiazol-6-yl)amino]butyl}amide] | 119
CCCN(CCCCNC(=O)N1Cc2ccccc2C1)C1CCc2ncsc2C1 (stereo not drawn) (as salt: salt) [Compound 27, 1,3-Dihydro-isoindole-2-carboxylic acid {4-[propyl-(4,5,6,7-tetrahydro-benzothiazol-6-yl)-amino]-butyl}-amide] | 118
CCN(CCN1CCN(c2ccccc2OC)CC1)C1CCc2ncsc2C1 (stereo not drawn) (as salt: salt) [Compound 28] | 108
CCN(CCCN1CCN(c2ccccc2OC)CC1)C1CCc2ncsc2C1 (stereo not drawn) (as salt: salt) [Compound 29, Ethyl-{3-[4-(2-methoxy-phenyl)-piperazin-1-yl]-propyl}-(4,5,6,7-tetrahydro-benzothiazol-6-yl)-amine] | 64
CCN(CCCCN1CCN(c2ccccc2OC)CC1)C1CCc2ncsc2C1 (stereo not drawn) (as salt: salt) [Compound 30, Ethyl-{4-[4-(2-methoxy-phenyl)-piperazin-1-yl]-butyl}-(4,5,6,7-tetrahydro-benzothiazol-6-yl)-amine] | 164
CCN(CCN1CCc2ccccc2C1)C1CCc2ncsc2C1 (stereo not drawn) (as salt: salt) [Compound 31, [2-(3,4-Dihydro-1H-isoquinolin-2-yl)-ethyl]-ethyl-(4,5,6,7-tetrahydro-benzothiazol-6-yl)-amine] | 193
CCN(CCNC(=O)c1ccc2ccccc2c1)C1CCc2ncsc2C1 (stereo not drawn) (as salt: salt) [Compound 32, Naphthalene-2-carboxylic acid {2-[ethyl-(4,5,6,7-tetrahydro-benzothiazol-6-yl)-amino]-ethyl}-amide] | 110
CCN(CCN(CC)C1CCc2ncsc2C1)C1CCc2ncsc2C1 (stereo not drawn) (as salt: salt) [Compound 33, N,N′-Diethyl-N,N′-bis-(4,5,6,7-tetrahydro-benzothiazol-6-yl)-ethane-1,2-diamine] | 83
CCCN(CCCN1CCN(c2cccc(Cl)c2Cl)CC1)C1CCc2ncsc2C1 (stereo not drawn) (as salt: salt) [Compound 36, {3-[4-(2,3-Dichloro-phenyl)-piperazin-1-yl]-propyl}-propyl-(4,5,6,7-tetrahydro-benzothiazol-6-yl)-amine] | 110

Further lines, results first:

melting point [°C] | Structure (SMILES)
150 | CCCN(CCCCN1CCN(c2cccc(Cl)c2Cl)CC1)C1CCc2ncsc2C1 (stereo not drawn) (as salt: salt) [Compound 37, {4-[4-(2,3-Dichloro-phenyl)-piperazin-1-yl]-butyl}-propyl-(4,5,6,7-tetrahydro-benzothiazol-6-yl)-amine]
186 | CCCN(CCN1CCN(C(=O)c2ccccc2)CC1)C1CCc2ncsc2C1 (stereo not drawn) (as salt: salt) [Compound 38, [2-(4-Benzoyl-piperazin-1-yl)-ethyl]-propyl-(4,5,6,7-tetrahydro-benzothiazol-6-yl)-amine]
93 | CCCN(CCCCNC(=O)NC1Cc2ccccc2C1)C1CCc2ncsc2C1 (stereo not drawn) (as salt: salt) [Compound 60, 1-Indan-2-yl-3-{4-[propyl-(4,5,6,7-tetrahydrobenzothiazol-6-yl)amino]butyl}urea]
120 | CCCN(CCCCNC(=O)N1CCN(c2ccccc2)CC1)C1CCc2ncsc2C1 (stereo not drawn) (as salt: salt) [Compound 61, 4-Phenylpiperazine-1-carboxylic acid {4-[propyl-(4,5,6,7-tetrahydrobenzothiazol-6-yl)amino]butyl}amide]
115 | CCCN(CCCCNC(=O)N1CC=C(c2ccccc2)CC1)C1CCc2ncsc2C1 (stereo not drawn) (as salt: salt) [Compound 62, 4-Phenyl-3,6-dihydro-2H-pyridine-1-carboxylic acid {4-[propyl-(4,5,6,7-tetrahydrobenzothiazol-6-yl)amino]butyl}amide]
56 | CCCN(CCCCNC(=O)N1CCC(c2ccccc2)CC1)C1CCc2ncsc2C1 (stereo not drawn) (as salt: salt) [Compound 64, 4-phenyl-N-(4-(propyl-(4,5,6,7-tetrahydrobenzo [d]thiazol-6-yl)amino)butyl)piperidine-1-carboxamide]
114 | CCCN(CCCCNC(=O)C12CC3CC(CC(C3)C1)C2)C1CCc2ncsc2C1 (stereo not drawn) (as salt: salt) [Compound 65]
75 | CCCN(CCCCC(=O)N1CCN(c2ccccc2)CC1)C1CCc2ncsc2C1 (stereo not drawn) (as salt: salt) [Compound 66, 1-(4-Phenylpiperazin-1-yl)-5-(propyl-(4,5,6,7-tetrahydrobenzothiazol-6-yl)amino)pentan-1-one]
60 | CCCN(CCCCC(=O)NC1Cc2ccccc2C1)C1CCc2ncsc2C1 (stereo not drawn) (as salt: salt) [Compound 67, N-(2,3-dihydro-1H-inden-2-yl)-5-(propyl-(4,5,6,7-tetrahydrobenzothiazol-6-yl)amino)pentanamide]
145 | CCCN(CCCCC(=O)NC12CC3CC(CC(C3)C1)C2)C1CCc2ncsc2C1 (stereo not drawn) (as salt: salt) [Compound 68, N-Adamantanyl-5-(propyl-(4,5,6,7-tetrahydrobenzothiazol-6-yl)amino)pentanamide]
136 | CCCN(CCOc1ccccc1)C1CCc2ncsc2C1 (stereo not drawn) (as salt: salt) [Compound 69, N-(2-Phenoxyethyl)-N-propyl-4,5,6,7-tetrahydrobenzothiazol-6-amine]
